Results on 11 compounds are retold here after paper PMC6481325, “Novel N,N-dialkyl cyanocinnamic acids as monocarboxylate transporter 1 and 4 inhibitors” (Oncotarget, 2019).

Test [1] has as its system MCT4 expressing MDA-MB-231 cells. In words: Seahorse XFe96 mitochondrial stress test (OCR), MDA-MB-231. Format: cell-based. As to conditions: 30 μM. The protocol:
(§1) Extracellular acidification rates (ECAR) and oxygen consumption rates (OCR) were recorded in real-time for glycolysis stress test (GST) and mitochondrial stress test (MST), respectively, using Agilent Seahorse XFe96® analyzer.

Test [2] deals with MCT1 expressing WiDr cells. As to the kind of experiment: Seahorse XFe96 mitochondrial stress test (OCR), WiDr. The test is classed as cell-based. The following applies: 30 μM. How it is done: as §1
In test [3] the test system is MCT1 expressing WiDr cells. In words: Seahorse XFe96 glycolysis stress test (ECAR), WiDr. Format: cell-based. The following applies: 30 μM. How it is done: (§2) In the GST, three parameters namely glycolysis, glycolytic capacity and glycolytic reserve were measured.
as §1

Test [4] relates to MCT4 expressing MDA-MB-231 cells. As to the kind of experiment: Seahorse XFe96 glycolysis stress test (ECAR), MDA-MB-231. As to conditions: 30 μM. The test is classed as cell-based. How it is done: as §2, §1
For another test, the target named is T1, MCT4 (Homo sapiens, UniProt O15427).
T1 construct: These cells predominantly express MCT4 as confirmed by Western blot and quantitative PCR analysis; host or cells: MDA-MB-231
T1 sequence (O15427 2-465 limits assumed): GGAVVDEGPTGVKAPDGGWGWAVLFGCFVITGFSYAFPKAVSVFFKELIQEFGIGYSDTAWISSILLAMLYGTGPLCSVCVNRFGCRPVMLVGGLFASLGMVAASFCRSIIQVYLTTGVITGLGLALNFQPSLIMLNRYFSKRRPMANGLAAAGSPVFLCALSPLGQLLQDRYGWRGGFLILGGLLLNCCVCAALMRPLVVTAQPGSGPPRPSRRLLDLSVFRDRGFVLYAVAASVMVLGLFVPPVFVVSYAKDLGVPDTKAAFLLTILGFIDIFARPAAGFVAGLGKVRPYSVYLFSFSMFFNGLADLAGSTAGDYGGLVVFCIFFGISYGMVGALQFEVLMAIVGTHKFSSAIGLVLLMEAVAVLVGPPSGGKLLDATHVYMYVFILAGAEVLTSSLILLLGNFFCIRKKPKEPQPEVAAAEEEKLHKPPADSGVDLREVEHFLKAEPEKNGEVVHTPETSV
T1 sequence (P35613 140-385 partner limits assumed): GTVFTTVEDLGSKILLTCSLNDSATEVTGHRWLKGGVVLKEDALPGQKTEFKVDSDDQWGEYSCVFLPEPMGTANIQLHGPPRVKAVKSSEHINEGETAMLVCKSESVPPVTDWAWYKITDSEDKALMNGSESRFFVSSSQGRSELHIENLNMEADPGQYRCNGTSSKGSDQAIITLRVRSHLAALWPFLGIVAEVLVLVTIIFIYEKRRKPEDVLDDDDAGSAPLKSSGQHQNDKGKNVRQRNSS
In words: L-[14C]-lactate uptake study in MCT4 expressing MDA-MB-231 cells. The test is classed as cell-based. The protocol: In this study, an L-[^14C]-lactate based transport assay was developed by us to quantify MCT4 transport and its inhibition by test compounds. […] For the MCT4 transport assay, the pH of HEPES buffer with L-[^14C]-lactate was adjusted to 7.0 such that lactate influx into the cells was aided by the pH gradient. […] Test compounds were diluted to working concentration in HEPES buffer (140 mM NaCl, 5 mM KCl, 2 mM CaCl2, 2 mM MgCl2, 10 mM HEPES, pH 7.0) containing 3 μM L-[^14C]-lactate (Perkin Elmer) and 2 μM L-lactate. […] HEPES buffer was replaced with 250 μL test solution. After 1 hour, media was replaced with 500 μL ice-cold stop buffer (0.1 mM CHC solution in HBS, pH 7.4) and the plates were placed on ice. Cells were washed twice with ice-cold stop buffer and solubilized using 250 μL of 0.1 M NaOH in 5% Triton-X (Millipore Sigma). A 150 μL aliquot from each well was added to 4 mL EcoLite(+)™ scintillation fluid (MP Biomedicals) and radioactivity was determined by scintillation spectrometry. Inhibition by each test solution was calculated as a percentage of the maximum control uptake. CHC and dimethylsulfoxide (DMSO) were used as controls. […]

Another test deals with MCT1. As to conditions: RBE4 cells, cited from earlier work.
The next test deals with MDA-MB-231 cells. As to the kind of experiment: SRB cell proliferation inhibition assay, MDA-MB-231. The test is classed as cell-based. The following applies: Homo sapiens, 72 hours, average ± sem. The protocol:
(§3) MDA-MB-231 cells (ATCC, 2015) were grown in DMEM supplemented with 10% FBS and penicillin-streptomycin (50 U/ml, 50 μg/ml, Invitrogen). WiDr cells (ATCC, 2017) were cultured in MEM medium supplemented with 10% FBS (Atlanta Biologicals) and penicillin-streptomycin (50 U/ml, 50 μg/ml). For in vitro experiments, after seeding, cells were incubated at 37°C in 5% CO2 for 18–24 hours before the addition of test compounds.
(§4) Cells (5 × 10^4 cells/mL) were cultured in 48-well plates. Test compounds were dissolved in DMSO (final concentration of DMSO is <0.1%) and were added to culture wells at various concentrations in replicate and incubated for 72 hours. Growth medium was removed and the wells were washed with PBS and dried. SRB (0.5% in 1% acetic acid) was added to the wells and incubated for 30–45 minutes. The wells were washed 3 times with 1% acetic acid and dried. The cellular protein was dissolved in trizma base (10 mM, pH 10.2) and absorbance was recorded at 540 nm. Percent survival was calculated using the formula %Survival=Abstest compound/Abscontrol×100 .

A further test deals with WiDr cells. In words: SRB cell proliferation inhibition assay, WiDr. The test is classed as cell-based. As to conditions: Homo sapiens, 72 hours, average ± sem. The protocol: as §3, §4
The test system of test [5] is MDA-MB-231 tumor xenograft. In words: Tumor growth inhibition, MDA-MB-231 xenograft model. The test is classed as in vivo. As to conditions: SCID mice. The protocol:
Figure 6 In vivo xenograft studies in WiDr and MDA-MB-231 tumor models (A) WiDr tumor xenograft study of compound 3 and compound 9. Mice (n = 8) were treated with 8 mg/kg of compound 3, intraperitoneally, two times a day. (B) Tumor growth inhibition study with compound 9 in MDA-MB-231 tumor xenograft model (n = 6). Mice were treated with compound 9 (70 mg/kg, ip, bid until day-4; qd from day-5), a combination of 9 and doxorubicin (0.5 mg/kg, ip, five days a week), and doxorubicin. (C) Tumor growth inhibition based on isolated tumor mass. ^*P < 0.05, ^**P < 0.01, ^***P < 0.001, ^****P < 0.0001. Schematic representation of (D) untreated tumor cells and (E) inhibition of MCT1 and MCT4 and decreased glycolysis and mitochondrial OxPhos in compound 9 treated tumor cells. Upward hollowed arrow indicates “increase” in function/amount and downward hollowed arrow indicates “decrease” in function/amount.
Group-1 was administered with compound 9, group-2 was given a combination of compound 9 and clinical breast cancer drug doxorubicin (AKSci catalog # E518), and group-3 was treated with doxorubicin alone. Group-4 was assigned as a control group and treated with vehicle (10% DMSO in saline). The treatment was continued up to 18 days and on day 20, the mice were euthanized and tumor masses isolated and weighed. […] Due to these reasons, higher dosages of compound 9 were required to produce significant anticancer efficacy in vivo. In all these studies, <20% of body weight loss was observed.
Tumor cells suspended in 1:1 matrigel-PBS were injected on right flank of female SCID mice (n = 6 mice/group, 10^7 MDA-MB-231 cells) or right flank of female athymic nude mice (n = 8 mice/group, 5 × 10^6 WiDr cells). Tumors were measured using calipers every 2–3 days and tumor volumes were calculated using the formula V = ab^2/2 where ‘a’ is the long diameter of the tumor and ‘b’ is the short diameter of the tumor. Tumor growth inhibition was determined using the formula % inhibition = [(C – T)/C] × 100 where C is average tumor weight of the control group and T is the average tumor weight of the test group.

Setting [6] is: Supplementary Table 1, average ± SEM, read-out: MCT4 IC50.
Where [7] appears, read: Supplementary Table 1, average ± SEM.

For orientation: IC50 means the point on the concentration scale where inhibition reaches its midpoint.

Molecules are shown by their SMILES. Read-outs that look alike come from different tables or passages of the source.

For the compound `Cc1[nH]nc(C(F)(F)F)c1Cc1sc2c(c1C(=O)N1C[C@](C)(O)CO1)c(=O)n(C)c(=O)n2C(C)C` [AZD3965, reference compound], in [1], the “ATP production (MST, OCR)” value is “did not affect”; the “maximal respiration (MST, OCR)” value was “did not affect”; the “proton leak (MST, OCR)” value is “did not affect”; the “spare respiratory capacity (MST, OCR)” value is “did not affect”. Besides, in test [2], the “ATP production (MST, OCR)” value is recorded as “did not affect”; the “maximal respiration (MST, OCR)” value was “did not affect”; the “proton leak (MST, OCR)” value is recorded as “did not affect”; the “spare respiratory capacity (MST, OCR)” value was “did not affect”. Moreover, in [3], the “glycolytic capacity (GST, ECAR)” value is “decreased” and the “glycolytic reserve (GST, ECAR)” value is recorded as “decreased”. Besides, in test [4], the “glycolysis (GST, ECAR)” value is given as “did not show any glycolysis inhibition”; the “glycolytic capacity (GST, ECAR)” value is given as “decreased glycolytic capacity only in WiDr”; the “glycolytic reserve (GST, ECAR)” value is recorded as “decreased glycolytic reserve only in MCT1 expressing WiDr”.

Consider `C=CCN(CC=C)c1ccc(/C=C(\C#N)C(=O)O)c(OC)c1` [Allyl (2)], for which the IC50 is 28 nM on MCT4 (Figure 1A and text, lactate uptake, read-out: MCT4 IC50); 24 ± 6 nM on MCT4 (setting [6]); 29 ± 2 nM with MCT1 (setting [7]); > 25000 nM in the test on MDA-MB-231 cells; > 25000 nM with WiDr cells.

On to `COc1cc(N(Cc2ccccc2)Cc2ccccc2)ccc1/C=C(\C#N)C(=O)O` [Benzyl (8)], for which the IC50 at MCT4 (setting [6]) was 32 ± 3 nM; with MCT1 (Figure 1A and text, lactate uptake), 37 nM; in the test with MCT1 (setting [7]), 25 ± 3 nM; with MDA-MB-231 cells, > 25000 nM; in the test on WiDr cells, > 25000 nM.

For `CCCCN(CCCC)c1ccc(/C=C(\C#N)C(=O)O)c(OC)c1` [Butyl (3)], at MCT4 (setting [6]), the IC50 worked out at 14 ± 2 nM. Further, in test [1], the “ATP production (MST, OCR)” value is on record as “decreased”; the “maximal respiration (MST, OCR)” value was “decreased”; the “spare respiratory capacity (MST, OCR)” value is recorded as “decreased”. Besides, in test [2], the “ATP production (MST, OCR)” value is “decreased”; the “maximal respiration (MST, OCR)” value was “decreased”; the “spare respiratory capacity (MST, OCR)” value was “decreased”. The half-inhibitory concentration (IC50) in the test on MDA-MB-231 cells is > 25000 nM. Also, in test [3], the “glycolytic capacity (GST, ECAR)” value is reported as “significant decrease” and the “glycolytic reserve (GST, ECAR)” value is recorded as “significant decrease”. Further, the IC50 with WiDr cells was > 25000 nM.

Take `N#CC(=Cc1ccc(O)cc1)C(=O)O` [CHC, α-cyano-4-hydroxy cinnamic acid, reference compound]: the IC50 against MCT4 (MCT4 IC50, CHC, lactate uptake) was ≥ 150000 nM. In test [1], the “ATP production (MST, OCR)” value is “did not affect”; the “maximal respiration (MST, OCR)” value is on record as “did not affect”; the “proton leak (MST, OCR)” value was “did not affect”; the “spare respiratory capacity (MST, OCR)” value is given as “did not affect”. Besides, in test [2], the “ATP production (MST, OCR)” value is listed as “did not affect”; the “maximal respiration (MST, OCR)” value is reported as “did not affect”; the “proton leak (MST, OCR)” value is reported as “did not affect”; the “spare respiratory capacity (MST, OCR)” value is reported as “did not affect”. Moreover, the IC50 with MCT1 (CHC, lactate uptake) is ≥ 150000 nM. Further, in test [3], the “glycolysis (GST, ECAR)” value was “did not affect”; the “glycolytic capacity (GST, ECAR)” value is “did not affect”; the “glycolytic reserve (GST, ECAR)” value is given as “decreased”. For the same compound, in [4], the “glycolysis (GST, ECAR)” value was “did not affect”; the “glycolytic capacity (GST, ECAR)” value is “did not affect”; the “glycolytic reserve (GST, ECAR)” value is “decreased glycolytic reserve only in MCT1 expressing WiDr”.

In the case of `COc1cc(N(CC(C)C)CC(C)C)ccc1/C=C(\C#N)C(=O)O` [Isobutyl (4)], the IC50 is 17 ± 2 nM at MCT4 (setting [6]), 11 ± 4 nM in the test on MCT1 (setting [7]), > 25000 nM in the test with MDA-MB-231 cells and > 25000 nM in the test with WiDr cells.

Take `CCCCCN(CCCCC)c1ccc(/C=C(\C#N)C(=O)O)c(OC)c1` [Pentyl (5)]: the IC50 is 85 ± 8 nM on MCT4 (setting [6]), 34 ± 7 nM in the test on MCT1 (setting [7]), > 25000 nM in the test with MDA-MB-231 cells and > 25000 nM in the test with WiDr cells.

As for `COc1cc(N2CCCCC2)ccc1/C=C(\C#N)C(=O)O` [Piperidinyl (7)], the IC50 at MCT4 (setting [6]) is 58 ± 13 nM; with MCT1 (setting [7]), 25 ± 5 nM; with MDA-MB-231 cells, > 25000 nM; in the test with WiDr cells it was > 25000 nM.

Regarding `CCCN(CCC)c1ccc(/C=C(\C#N)C(=O)O)c(OC)c1` [Propyl (1)], the IC50 was 11 ± 1 nM on MCT4 (setting [6]), 12 ± 1 nM in the test on MCT1 (setting [7]), > 25000 nM in the test with MDA-MB-231 cells and > 25000 nM with WiDr cells.

In the case of `COc1cc(N2CCCC2)ccc1/C=C(\C#N)C(=O)O` [Pyrrolidinyl (6)], the IC50 in the test on MDA-MB-231 cells and in the test with WiDr cells was > 25000 nM in each case.

Consider `COc1cccc2c1C(=O)c1c(O)c3c(c(O)c1C2=O)C[C@@](O)(C(=O)CO)C[C@@H]3O[C@H]1C[C@H](N)[C@H](O)[C@H](C)O1` [doxorubicin, reference compound], for which, in test [5] (9 70 mg/kg ip bid until day-4, qd from day-5, doxorubicin 0.5 mg/kg ip five days a week, treatment up to 18 days), the “tumor growth inhibition based on tumor volume” value is on record as 48%. Also, in test [5] (same regimens, tumors isolated on day 20), the “tumor growth inhibition based on isolated tumor weights” value stood at 52%.
